Residues, ends and D or L forms follow the SMILES beside them. No end group written: not given here.
Columns and labels:
Format in all cases: cell-based
TLR2/TLR1 heterodimer = molecular target: T1, TLR2/TLR1 heterodimer (Mus musculus, UniProt Q9QUN7); assay: P3C-induced cytokine mRNA expression in mouse macrophages; conditions: peptide 30 min; P3C 500 ng/ml 1 hour (FIG. 15A)
T1 construct: endogenous in cells; host or cells: thioglycollate-elicited mouse peritoneal macrophages
Description: (§1) Total cellular RNA was isolated using Tripure from Roche (San Francisco, Calif.) following manufacture's protocol. RNA was then reverse transcribed using AMV Reverse Transcriptase from Promega (Madison, Wis.) with poly-T priming as per manufacturer's directions. cDNA was then quantified by real-time PCR using Applied Biosystems Fast SYBR Green PCR Master Mix and an ABI Prism 7500HT cycler. Primers used for detection: hypoxanthine phosphoribosyltransferase (HPRT) (forward: […] (SEQ ID NO:51), reverse: […] (SEQ ID NO:52)), TNFα (forward: […] (SEQ ID NO:53), reverse: […] (SEQ ID NO:54)), IL-1β (forward: […] (SEQ ID NO:55), reverse: […] (SEQ ID NO:56)), IFNβ (forward: […] (SEQ ID NO:57), reverse: CTCGGACCACCATCCAGG (SEQ ID NO:58)) and RANTES (forward: […] (SEQ ID NO:59), reverse: […] (SEQ ID NO:60)). The primers were designed using Primer Express 2.0 (Applied Biosystems). Using HPRT as reference, the ΔCt method was used to calculate relative gene expression. One-way ANOVA was preformed, as well as Dunnett's multiple comparison post hoc test with a p≦0.01 selected as the level of significance.
(§2) Protein-free Escherichia coli K235 LPS was used at final concentration of 10 ng/ml to stimulate cells. S-[2,3-bis(palmitoyloxy)-(2-RS)-propyl]-N-palmitoyl-(R)-Cys-Ser-Lys4-OH (P3C) and S-[2,3-bis(palmitoyloxy)-(2-RS)-propyl]-[R]-Cys-Ser-Lys4-OH (P2C) were purchased from EMC microcollections GmbH (Tubingen, Germany) and used for cell stimulation at 500 and 50 ng/ml, respectively. Phospho-ERK1/2 and phospho-JNK1/2 rabbit Abs were obtained from Cell Signaling Technology, Inc. β-actin rabbit Ab were from SantaCruz Biotechnology, Inc.
(§3) Because of the role TRAP plays in TLR2 signaling, TIRAP TIR-derived decoy peptide effects on TLR2-induced cytokine mRNA expression were examined. Thioglycollate-elicited mouse macrophages were stimulated either by P2C, an agonist that induces signaling through TLR2/TLR6 heterodimerization, or P3C, a TLR2/TLR1 agonist, and effects of TIRAP TR-derived decoy peptides on induction of cytokine mRNA were examined. […] To confirm the inhibitory effect of TR3 and TR6 on P3C-induced signaling, IL-6 and TNF-α concentration was measured in macrophage supernatants collected 5 h after stimulation of cells with P3C. […] Concordantly, both TR3 and TR6 diminished the P3C-induced ERK phosphorylation (FIG. 3D).
(§4) C57BL/6J mice were obtained from The Jackson Laboratory (BarHarbor, Me.). Harvesting, culturing, and stimulation of peritoneal macrophages were described in previous publications (1, 18, 19). Escherichia coli K235 LPS (34) was used at the final concentration of 100 ng/ml. The 2,3-bis(palmitoyloxy)-(2-RS)-propyl-N-palmitoyl-(R)-Cys-Ser-Lys4-OH (P3C) and S[2,3-bis(palmitoyloxy)-(2-RS)-propyl]-[R]-Cys-Ser-Lys4-OH (P2C) (EMC Microcollections, Tubingen, Germany) were used at 500 and 50 ng/ml, respectively. Oligonucleotide (ODN) 1668 and low m.w. polyinosinic-polycytidylic acid [poly(I:C)] in complex with LyoVec were obtained from InvivoGen; these agonists were used at 2.5 μM and 400 ng/ml, respectively.

TLR2 = molecular target: T2, TLR2 (Mus musculus, UniProt Q9QUN7); assay: Inhibition of TLR2 signaling in thioglycollate-elicited mouse macrophages (effective concentration, TLR2 agonists P3C/P2C); conditions: for Effective conc.: TLR2 pathway, thioglycollate-elicited mouse macrophages; for IL-1β expression induced by TLR2 agonists: P2C and P3C (FIG. 16A, B)
T2 construct: Primary peritoneal macrophages were obtained by peritoneal lavage; endogenous in cells; host or cells: thioglycollate-elicited mouse peritoneal macrophages
Description: (§5) C57BL/6J mice were obtained from The Jackson Laboratory (Bar Harbor, Me.). Primary peritoneal macrophages were obtained by peritoneal lavage 4 days after intraperitoneal injection (3 ml) of sterile 3% thioglycolate broth. Washed cells were resuspended in RPMI 1640 which contained 2% FBS, 1% penicillin:streptomycin and 2 mM L-glutamine. After plating, cells were incubated overnight at 37° C. and then washed with PBS to remove non-adherent cells. Cells were exposed to peptides 30 min before stimulation with a TLR agonist.
as §2, §3, §4

TLR2/TLR6 heterodimer = molecular target: T3, TLR2/TLR6 heterodimer (Mus musculus, UniProt Q9QUN7); assay: P2C-induced cytokine mRNA expression in mouse macrophages; conditions: peptide 30 min; P2C 50 ng/ml 1 hour (FIG. 15B)
T3 construct: endogenous in cells; host or cells: thioglycollate-elicited mouse peritoneal macrophages
Description: as §1, §2, §3, §4

TLR4 [1] = assay: LPS-induced cytokine mRNA expression in mouse macrophages (real-time RT-PCR); conditions: for LPS-induced cytokine mRNA induction: peritoneal macrophages (FIG. 14A); for LPS-induced TNF-α and IL-1β mRNA expression: 20 μM peptide 30 min, LPS 1 hour (FIG. 13A)
Description: as §5, §1
Total RNA was isolated with Nucleospin RNA II kits (Macherey-Nagel, Bethlehem, Pa.), followed by DNase digestion. cDNA was synthesized from 1 μg RNA using Goscript transcriptase (Promega), and subjected to real-time PCR with gene-specific primers for HPRT, TNF-α, IL-1β, IFNβ, and RANTES on H7900 ABI system using Fast SYBR Green master mix (Applied Biosystems, Foster City, Calif.).
To evaluate peptide-inhibitory activities, we first measured LPS-induced cytokine mRNA expression. […] […] Decoy peptide TM4 is derived from the BB loop of TRAM TIR; we previously identified this peptide as an effective TLR4 inhibitor (19).

TLR4 [2] = assay: LPS-induced MAPK (ERK, JNK, p38) activation in mouse macrophages (Western analysis); conditions: for LPS-induced activation of ERK and JNK MAPKs: peritoneal macrophages (FIG. 14B); for LPS-induced activation of p38 and ERK MAPKs: 20 μM peptide, LPS 30 min
Description: Cellular protein extracts were isolated by addition of 240 μL per well cold lysate buffer (20 mM Tris, 50 mM NaCl, 1.5 mM MgCl2, 2 mM EDTA, 10 mM NaF, 2 Mm DTT, 1 mM Na3VO4, 1% Triton). Cells were incubated with lysis solution for 30 min on agitator at 4° C. Lysate was then collected and centrifuged at 14,000 g for 10 minutes at 4° C. After quantification using BioRad protein assay, protein samples were added to Laemmli buffer and then boiled for 10 min. Samples were then resolved by SDS-10% PAGE in Tris/glycine/SDS buffer (25 mM Tris, 250 mM glycine, 0.1% SDS), and transferred onto Immobilon P transfer membranes (Millipore, Bedford, Mass.) (100 V, 1.5 h, 4° C.). Membranes were blocked for 1 h in TBS-T (20 mM Tris-HCl, 150 mM NaCl, 0.1% Tween 20) containing 5% nonfat milk, then probed for overnight at 4° C. with the respective antibodies (Abs) (dilution 1:1000 in TBS-T with 2% BSA). After washing in TBS-T, membranes were incubated with secondary HRP-conjugated, donkey anti-rabbit IgG (1:10,000 dilution in TBS-T with 5% nonfat milk) for 1 h at room temperature. Membranes washed five times in TBS-T before development with ECL reagents (GE Healthcare) according to manufacturer's directions.
HEK293T cells were transfected with indicated plasmids using Superfect Transfection Reagent (Qiagen). Twenty-four hours posttransfection, the cells were lysed using the buffer containing 20 mM HEPES (pH 7.4), 150 mM NaCl, 10 mM NaF, 2 mM Na3VO4, 1 mM EDTA, 1 mM EGTA, 0.5% Triton X-100, 0.1 M DTT, 1 mM PMSF, and protease inhibitor mixture (Roche, Indianapolis, Ind.). Rabbit Ab against phospho-ERK, phospho-JNK, MyD88 (D80F5), STAT1-Y701, total STAT1, and GAPDH were purchased from Cell Signaling Technology (Beverly, Mass.). Rabbit anti-phospho-p38 Ab was purchased from Promega (Madison, Wis.). Goat anti-TLR4 (M−16), rabbit anti-TLR4 (H-80), anti-HA-HRP (F-7), and rabbit anti-b-actin Ab were purchased from Santa Cruz Biotechnology. Mouse anti-Flag M2 and rabbit anti-HA Ab were from Sigma-Aldrich. GFP Ab (A1122) was from Invitrogen. Protein was quantified using Bio-Rad protein quantification kit. Equal amount of protein was loaded and analyzed by 10% SDS-PAGE and immunoblotting. The cell extracts containing equal amount of protein were incubated with 1 μg Ab for 2 h, followed by 4-h incubation with 25 μl protein G agarose beads (Roche); the beads were then washed four times with lysis buffer, boiled in […] sample loading buffer, and analyzed by immunoblotting.
We next examined whether TRAM peptides inhibit the TLR4-mediated p38, ERK, and JNK MAPK activation. Murine macrophages pretreated with peptides for 30 min were challenged with LPS. Cell lysates were collected 30 min post-stimulation and analyzed for MAPK phosphorylation by Western analysis. Consistent with peptide effects on steady-state mRNA, both TM4 and TM6 inhibited activation of all three MAPKs (FIG. 5C). The inhibition of MAPKs by TM4 or TM6 was long lasting; it persisted for at least 1 h after LPS stimulation (data not shown). To characterize further the effects of TRAM peptides on MAPKs, murine macrophages were treated with TRAM peptides, but not challenged by LPS.

TLR4 [3] = assay: Inhibition of TLR4 signaling in thioglycollate-elicited mouse macrophages (effective concentration, overall inhibitory activity); conditions: TLR4 pathway; thioglycollate-elicited mouse macrophages
Description: as §5
TIRAP/Mal functions to facilitate MyD88 recruitment to the activated TLR4 and TLR2, presumably through a simultaneous interaction with receptor and MyD88 TIR domains. Therefore, multiple TIR:TIR interaction sites are expected in TIRAP TIR. The decoy peptide approach was used to obtain leads on the functional protein-protein interfaces within TIRAP/Mal, a TLR adapter protein. To this end, eleven TIRAP TIR-derived decoy peptides were designed to be structurally homologous to the TLR4 TIR-derived decoy peptides used previously (1), so that each peptide represents a non-fragmented patch of the TIRAP TIR surface, with the entire domain encompassed by the set of peptides. The TIRAP TIR-derived decoy peptides were synthesized in tandem with the cell-permeating sequence of Antennapedia homeodomain (21) and each peptide was tested for the ability to inhibit TLR4 and TLR2 signaling in primary mouse macrophages. Peptide sequences and the structural regions they represent are shown in reference (30).
as §4

T2 sequence (Q9QUN7 25-784): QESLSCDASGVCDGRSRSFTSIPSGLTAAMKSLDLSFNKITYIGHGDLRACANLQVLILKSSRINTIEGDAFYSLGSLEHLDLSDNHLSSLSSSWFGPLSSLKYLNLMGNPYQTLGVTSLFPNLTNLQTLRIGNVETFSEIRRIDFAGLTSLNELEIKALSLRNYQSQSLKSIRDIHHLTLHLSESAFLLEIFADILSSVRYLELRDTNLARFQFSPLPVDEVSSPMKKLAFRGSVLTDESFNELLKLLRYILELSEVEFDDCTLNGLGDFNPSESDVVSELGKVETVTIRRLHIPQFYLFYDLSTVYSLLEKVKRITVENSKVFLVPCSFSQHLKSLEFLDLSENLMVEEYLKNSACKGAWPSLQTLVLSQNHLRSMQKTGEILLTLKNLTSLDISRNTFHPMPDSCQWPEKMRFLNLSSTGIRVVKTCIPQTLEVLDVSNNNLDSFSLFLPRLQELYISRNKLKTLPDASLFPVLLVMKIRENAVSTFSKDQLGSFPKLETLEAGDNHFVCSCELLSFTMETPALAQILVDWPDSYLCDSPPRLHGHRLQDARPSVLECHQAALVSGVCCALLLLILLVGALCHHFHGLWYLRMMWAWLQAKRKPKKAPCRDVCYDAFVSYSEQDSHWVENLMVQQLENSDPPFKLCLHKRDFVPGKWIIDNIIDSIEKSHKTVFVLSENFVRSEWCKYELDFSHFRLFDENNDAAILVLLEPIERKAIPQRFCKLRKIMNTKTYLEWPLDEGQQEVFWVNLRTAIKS
T1 sequence (Q9QUN7 25-784, one chain of several): as the sequence (Q9QUN7 25-784) above
T3 sequence (Q9QUN7 25-784, one chain of several): as the sequence (Q9QUN7 25-784) above

Row | Molecule | Effective conc. (TLR2) | LPS-induced cytokine mRNA induction (TLR4 [1]) | LPS-induced activation of ERK and JNK MAPKs (TLR4 [2]) | Effective conc. (TLR4 [3]) | also measured
1 | CC[C@H](C)[C@H](NC(=O)[C@H](CCCCN)NC(=O)[C@@H](NC(=O)[C@H](CCC(N)=O)NC(=O)[C@@H](N)CCCNC(=N)N)[C@@H](C)CC)C(=O)N[C@@H](Cc1c[nH]c2ccccc12)C(=O)N[C@@H](Cc1ccccc1)C(=O)N[C@@H](CCC(N)=O)C(=O)N[C@@H](CC(N)=O)C(=O)N[C@@H](CCCNC(=N)N)C(=O)N[C@@H](CCCNC(=N)N)C(=O)N[C@@H](CCSC)C(=O)N[C@@H](CCCCN)C(=O)N[C@@H](Cc1c[nH]c2ccccc12)C(=O)N[C@@H](CCCCN)C(=O)N[C@@H](CCCCN)C(=O)N[C@@H](CCCNC(=N)N)C(=O)N[C@@H](CCCCN)C(=O)N1CCC[C@H]1C(=O)N[C@@H](CCCCN)C(=O)N[C@@H](CCCCN)C(=O)N[C@@H](C)C(=O)N1CCC[C@H]1C(=O)N[C@@H](CS)C(=O)N[C@@H](CCCNC(=N)N)C(=O)N[C@@H](CC(=O)O)C(=O)N[C@H](C(=O)N[C@@H](CS)C(=O)N[C@@H](Cc1ccc(O)cc1)C(=O)N[C@@H](CC(=O)O)C(=O)O)C(C)C [Peptide 2R1] (H-RQIKIWFQNRRMKWKKRKPKKAPCRDVCYD-OH; N-terminus and C-terminus assumed) | 40 µM | – | – | – | Cytokine mRNA expression induced by P3C (TLR2/TLR1 heterodimer): inhibit; Cytokine mRNA expression induced by P2C (TLR2/TLR6 heterodimer): inhibit
2 | RQIKIWFQNRRMKWKKAGCKKYSRGESIYD [Peptide 4R1] | – | potently inhibit | potently inhibit | 20 µM | –
3 | RQIKIWFQNRRMKWKKEEGVPRFHLC [Peptide 4R3] | – | potently inhibit | potently inhibit | 20 µM | –
4 | RQIKIWFQNRRMKWKKENSDPPFKLC [Peptide 2R3] | 40 µM | – | – | – | Cytokine mRNA expression induced by P3C (TLR2/TLR1 heterodimer): inhibit
5 | RQIKIWFQNRRMKWKKEPIERKAIPQRFCK [Peptide 2DD-αD] | 40 µM | – | – | – | IL-1β expression induced by TLR2 agonists (TLR2): potently inhibits
6 | RQIKIWFQNRRMKWKKEQTDYRLKLC [Peptide M3] | – | – | – | 20 µM | LPS-induced TNF-α and IL-1β mRNA expression (TLR4 [1]): inhibit; LPS-induced activation of p38 and ERK MAPKs (TLR4 [2]): inhibit
7 | RQIKIWFQNRRMKWKKHIFWRRLKNALLD [4R11/4αE] | – | potently inhibit | potently inhibit | 20 µM | –
8 | RQIKIWFQNRRMKWKKIASELIEKRCRRM [Peptide M5] | – | – | – | 20 µM | LPS-induced TNF-α and IL-1β mRNA expression (TLR4 [1]): inhibit; LPS-induced activation of p38 and ERK MAPKs (TLR4 [2]): inhibit
9 | RQIKIWFQNRRMKWKKLHKRDFVPGKWIID [Peptide 2BB] | 40 µM | – | – | – | IL-1β expression induced by TLR2 agonists (TLR2): inhibits
10 | RQIKIWFQNRRMKWKKLRQQVELYRLLSR [Peptide 4R9] | – | potently inhibit | potently inhibit | 20 µM | –
11 | RQIKIWFQNRRMKWKKPQRFCKLRKIMNT [Peptide 2R9] | 40 µM | – | – | – | Cytokine mRNA expression induced by P3C (TLR2/TLR1 heterodimer): inhibit; TLR2-induced ERK activation (TLR2; FIG. 16C): strongly inhibits; Cytokine mRNA expression induced by P2C (TLR2/TLR6 heterodimer): inhibit
12 | RQIKIWFQNRRMKWKKSDRDVLPGTCVWS [Peptide M4] | – | – | – | 20 µM | LPS-induced TNF-α and IL-1β mRNA expression (TLR4 [1]): inhibit; LPS-induced activation of p38 and ERK MAPKs (TLR4 [2]): inhibit

From US20130203649A1, “INHIBITORS OF TLR SIGNALING BY TARGETING TIR DOMAIN INTERFACES” (UNIVERSITY OF MARYLAND, BALTIMORE, priority 2012, published 2013)
